Assay results reported in US12398107B2, “Fungicidal nitroanilino substituted pyrazoles” (FMC Corporation, priority 2018, dated 2025).

What was measured:
Type in all cases: in vivo
Septoria tritici = assay: Test A: wheat leaf blotch, preventive spray on wheat seedlings; settings: 100 = 100% disease control, 0 = no control relative to controls; for Test A disease control rating (wheat leaf blotch) / pest or weed control at 50 ppm: 50 ppm
How it was run: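 Compounds were suspended in acetone/water (50/50) with 250 ppm PEG400 and sprayed to run-off on wheat seedlings. The next day the seedlings were inoculated with Septoria tritici spores, held 48 h at 24 °C in saturated humidity, then 17 days at 20 °C. Disease control was rated 0–100 relative to controls.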

[1] = tested on: Puccinia recondita f. sp. tritici; assay: Test B: wheat leaf rust, preventive spray on wheat seedlings; settings: 100 = 100% disease control, 0 = no control relative to controls; for Test B disease control rating (wheat leaf rust) / pest or weed control at 50 ppm: 50 ppm
How it was run: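 Compounds in acetone/water (50/50) with 250 ppm PEG400, sprayed to run-off on wheat seedlings at stated ppm; inoculated next day with P. recondita spores. Held 24 h saturated at 20° C., then 7 days in growth chamber at 20° C.; rating 0–100 = % disease control vs controls.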

[2] = tested on: Blumeria graminis f. sp. tritici; assay: Test C: wheat powdery mildew, preventive spray on wheat seedlings; settings: rated after 8 days, 100 = 100% disease control, 0 = no control; for Test C disease control rating (wheat powdery mildew) / pest or weed control at 50 ppm: 50 ppm
How it was run: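 Compound dissolved in acetone (3% of final volume), then suspended in 50/50 acetone/water with 250 ppm PEG400 and sprayed to run-off on wheat seedlings. Inoculated next day with B. graminis f. sp. tritici spore dust, kept 8 days at 20° C; visual rating, 100 = full control, 0 = none, relative to controls.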

Phakopsora pachyrhizi = assay: Test D: Asian soybean rust, preventive spray on soybean seedlings; settings: 100 = 100% disease control, 0 = no control; for Test D disease control rating (Asian soybean rust) / pest or weed control at 50 ppm: 50 ppm
How it was run: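 Soybean seedlings sprayed to run-off with compound suspension (ppm, in 50/50 acetone/water with 250 ppm PEG400), inoculated next day with P. pachyrhizi spores, held 24 h saturated at 22°C then 8 days at 22°C. Visual rating 0-100% disease control relative to controls.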

Botrytis cinerea = assay: Test E: tomato Botrytis, preventive spray on tomato seedlings; settings: 100 = 100% disease control, 0 = no control; for Test E disease control rating (tomato Botrytis) / pest or weed control at 50 ppm: 50 ppm
How it was run: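 Tomato seedlings sprayed to run-off with compound (ppm) in acetone/water with 250 ppm PEG400, then inoculated next day with B. cinerea spores. Held 48 h at 20 °C in saturated atmosphere, then 3 days at 24 °C. Visual rating 0–100% disease control relative to untreated controls.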

Alternaria solani = assay: Test F: tomato early blight, preventive spray on tomato seedlings; settings: 100 = 100% disease control, 0 = no control; for Test F disease control rating (tomato early blight) / pest or weed control at 50 ppm: 50 ppm
How it was run: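 Compounds in acetone/water (50/50) with 250 ppm PEG400, dosed in ppm, sprayed to run-off on tomato seedlings; next day inoculated with A. solani spores. Held 48 h saturated at 27° C, then 3 days at 20° C; visual rating 0–100% disease control relative to controls.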

[3] = Zymoseptoria tritici, read-out: Test A disease control rating (wheat leaf blotch)
[4] = read-out: Test B disease control rating (wheat leaf rust)
[5] = Blumeria graminis, 192 h, read-out: Test C disease control rating (wheat powdery mildew)
[6] = Phakopsora pachyrhizi, read-out: Test D disease control rating (Asian soybean rust)
[7] = Botrytis cinerea, read-out: Test E disease control rating (tomato Botrytis)
[8] = Alternaria solani, read-out: Test F disease control rating (tomato early blight)

Row | SMILES | Test A disease control rating (wheat leaf blotch) (Septoria tritici) | Test B disease control rating (wheat leaf rust) [1] | Test C disease control rating (wheat powdery mildew) [2] | Test D disease control rating (Asian soybean rust) (Phakopsora pachyrhizi) | Test E disease control rating (tomato Botrytis) (Botrytis cinerea) | Test F disease control rating (tomato early blight) (Alternaria solani) | pest or weed control at 50 ppm (Septoria tritici; [3]) | pest or weed control at 50 ppm [1, 4] | pest or weed control at 50 ppm [2, 5] | pest or weed control at 50 ppm (Phakopsora pachyrhizi; [6]) | pest or weed control at 50 ppm (Botrytis cinerea; [7]) | pest or weed control at 50 ppm (Alternaria solani; [8]) | pest or weed control at 10 ppm (Septoria tritici; Zymoseptoria tritici, 10 ppm, read-out: Test A disease control rating (wheat leaf blotch)) | pest or weed control at 10 ppm ([1]; 10 ppm, read-out: Test B disease control rating (wheat leaf rust)) | pest or weed control at 10 ppm ([2]; Blumeria graminis, 192 h, 10 ppm, read-out: Test C disease control rating (wheat powdery mildew)) | pest or weed control at 10 ppm (Phakopsora pachyrhizi; Phakopsora pachyrhizi, 10 ppm, read-out: Test D disease control rating (Asian soybean rust)) | pest or weed control at 10 ppm (Botrytis cinerea; Botrytis cinerea, 10 ppm, read-out: Test E disease control rating (tomato Botrytis)) | pest or weed control at 10 ppm (Alternaria solani; Alternaria solani, 10 ppm, read-out: Test F disease control rating (tomato early blight))
1 | CCc1nn(C)c(Nc2ccc(OC)cc2[N+](=O)[O-])c1-c1ccc(F)cc1F [Compound 45] | 100% | 86% | 95% | 0% | 99% | 33% |  |  |  |  |  |  |  |  |  |  |  | 
2 | Cc1nn(C)c(Nc2c(F)cccc2[N+](=O)[O-])c1-c1ccc(Cl)cc1F [Compound 12] | 100% | 99% | 81% | 0% | 97% | 53% |  |  |  |  |  |  |  |  |  |  |  | 
3 | Cc1nn(C)c(Nc2c(F)cc(Br)cc2[N+](=O)[O-])c1-c1ccc(F)cc1F [Compound 56] | 100% | 100% | 100% | 65% | 99% | 99% |  |  |  |  |  |  |  |  |  |  |  | 
4 | COc1cc(F)c(-c2c(C)nn(C)c2Nc2c(C)cccc2[N+](=O)[O-])c(F)c1 [Compound 162] | 100% | 100% | 99% | 77% | 97% | 98% |  |  |  |  |  |  |  |  |  |  |  | 
5 | COc1ccc(-c2c(C)nn(C)c2Nc2c(F)cccc2[N+](=O)[O-])c(C)c1 [Compound 48] | 100% | 95% | 89% | 0% | 97% | 97% |  |  |  |  |  |  |  |  |  |  |  | 
6 | Cc1nn(C)c(Nc2ccccc2[N+](=O)[O-])c1-c1ccc(C#N)cc1F [Compound 134] | 100% | 23% | 71% | 0% | 70% | 0% |  |  |  |  |  |  |  |  |  |  |  | 
7 | Cc1nn(C)c(Nc2ccccc2[N+](=O)[O-])c1-c1c(F)cc(F)cc1Br [Compound 154] | 99% | 80% | 98% | 0% | 99% | 51% |  |  |  |  |  |  |  |  |  |  |  | 
8 | Cc1nn(C)c(Nc2ccc(Cl)cc2[N+](=O)[O-])c1-c1ccc(F)cc1F [Compound 78] | 100% | 89% | 95% | 0% | 68% | 0% |  |  |  |  |  |  |  |  |  |  |  | 
9 | Cc1nn(C)c(Nc2ccc(OC(F)(F)F)cc2[N+](=O)[O-])c1-c1ccc(F)cc1Cl [Compound 94] | 73% | 0% | 72% | 73% | 0% | 9% |  |  |  |  |  |  |  |  |  |  |  | 
10 | COc1ccc(-c2c(C)nn(C)c2Nc2c(Cl)cccc2[N+](=O)[O-])c(C)c1 [Compound 35] | 99% | 85% | 0% | 0% | 0% | 0% |  |  |  |  |  |  |  |  |  |  |  | 
11 | COc1ccc(-c2c(C)nn(C)c2Nc2c(Cl)cc(F)cc2[N+](=O)[O-])c(Cl)c1 [Compound 73, N-(2-chloro-4-fluoro-6-nitrophenyl)-4-(2-chloro-4-methoxyphenyl)-1,3-dimethyl-1H-pyrazol-5-amine] |  |  |  |  |  |  | 100% | 100% | 96% | 98% | 99% | 97% |  |  |  |  |  | 
12 | Cc1cc(F)c(Nc2c(-c3ccc(F)cc3Cl)c(C)nn2C)c([N+](=O)[O-])c1 [Compound 93, 4-(2-chloro-4-fluorophenyl)-N-(2-fluoro-4-methyl-6-nitrophenyl)-1,3-dimethyl-1H-pyrazol-5-amine] |  |  |  |  |  |  | 100% | 100% | 99% | 100% | 100% | 99% | 99% | 100% | 97% | 87% | 99% | 99%
13 | Cc1cc(Cl)cc([N+](=O)[O-])c1Nc1c(-c2ccc(F)cc2Cl)c(C)nn1C [Compound 33] | 100% | 100% | 99% | 92% | 99% | 85% |  |  |  |  |  |  |  |  |  |  |  | 
14 | Cc1nn(C)c(Nc2c(Cl)cc(F)cc2[N+](=O)[O-])c1-c1c(F)cccc1Cl [Compound 49] | 100% | 100% | 95% | 25% | 94% | 26% |  |  |  |  |  |  |  |  |  |  |  | 
15 | Cc1nn(C)c(Nc2c(F)cc(F)cc2[N+](=O)[O-])c1-c1c(F)cccc1F [Compound 75] | 100% | 99% | 90% | 0% | 57% | 98% |  |  |  |  |  |  |  |  |  |  |  | 
16 | CCn1nc(C)c(-c2ccc(F)cc2Cl)c1Nc1c(F)cccc1[N+](=O)[O-] [Compound 71] | 100% | 100% | 99% | 82% | 99% | 98% |  |  |  |  |  |  |  |  |  |  |  | 
17 | Cc1nn(C)c(Nc2c(F)cccc2[N+](=O)[O-])c1-c1c(F)cc(C#N)cc1F [Compound 114] | 100% | 98% | 99% | 73% | 100% | 99% |  |  |  |  |  |  |  |  |  |  |  | 
18 | Cc1nn(C)c(Nc2c(Cl)cc(Cl)cc2[N+](=O)[O-])c1-c1ccc(F)cc1Cl [Compound 59] | 100% | 100% | 99% | 96% | 99% | 92% |  |  |  |  |  |  |  |  |  |  |  | 
